Like-named read-outs stand apart in the source and are kept apart here.
How the values were obtained:
[1] = Human clinical bioavailability study, oral versus i.v. paclitaxel; assay type: in vivo
Procedure: An open label, two-treatment, single dose, two-period, cross-over, […] Paclitaxel BMS formulation (175 mg) in 11 patients (male or female) suffering from solid tumors, cancers and malignancies refractory to standard therapy were treated under fasting condition.
In this part of the study, the oral course and IV course were randomized. […]
The IV formulation of paclitaxel ([…]; Rhône-Poulenc Rorer/Aventis, Antony, France) was used for both IV and oral administration of the agent. One hour before oral paclitaxel administration, patients received 1 mg of oral granisetron and oral CsA capsules (500 mg). Patients who completed the first course of oral paclitaxel were eligible to receive IV paclitaxel.
Pharmacokinetic monitoring was performed during course i.v. and oral paclitaxel administration. For plasma paclitaxel and metabolite concentrations, blood samples of 5 mL each were collected in heparinized tubes. After oral administration, blood samples were obtained before dosing, at time 0 min and then 15, 30, 45, 60, 75, 90 minutes, and 2, 3, 4, 7, 10, 24, 30, and 48 h after paclitaxel ingestion. […] After centrifugation, the plasma was transferred to a polypropylene storage tube and stored at −20° C. until analyzed. Paclitaxel and metabolite concentrations in plasma were determined using a validated high-performance liquid chromatography (HPLC) assay.

[2] = female, C57BL6, mouse, in vivo
[3] = system: MCF-7 cells; assay: Cytotoxicity against MCF-7 cell growth; assay type: cell-based, human
Procedure: The cellular uptake of non-targeted and folic acid (FA)-targeted tumor has affinity for folic acid (breast, tumor, ovarian tumors) microbeads as prepared above was evaluated in human breast carcinoma cell, MCF-7. The microbeads are made specifically to be retained by the tumor sites and tumors have affinity toward the drug and conjugate. To investigate the effect of time on the FA-targeted microbead uptake by FR-bearing cells, […]. MCF-7 cells were incubated with free rhodamine B (free R-B), plain micellar rhodamine B (DOMC/R-B) and FA-micellar rhodamine B (DOMC-FA/R-B) for various periods and visualized using fluorescence microscopy. The cytotoxicity of paclitaxel (PTX) in plain micelles (DOMC/PTX) and FA-micellar PTX (DOMC-FA/PTX) was investigated and compared with that of the free PTX and taxol injection using MCF-7 cells. […] In order to elucidate PTX-loaded micelles induced-apoptosis in MCF-7 cells, Hoechst staining of nuclei was observed after different treatments.

[4] = female, FVB wild-type, mouse, in vivo

AUC ([1]; both sexes, plasma, 75 mg/m2, oral 75 mg/m^2, without delivery system, read-out: mean AUC of orally administered paclitaxel): 420 ± 140 ng·h/mL
oral bioavailability (ratio of AUC after oral and after i.v., dose corrected) ([1]; without delivery system): 4.3%±1.8
oral bioavailability (ratio of AUC after oral and after IV, dose corrected) [2]: 6%±1.6
oral bioavailability (ratio of AUC after oral and after i.v., dose corrected) [4]: 6%±1.6
SMILES: CC(=O)O[C@H]1C(=O)[C@@]2(C)[C@H]([C@H](OC(=O)c3ccccc3)[C@]3(O)C[C@H](OC(=O)[C@H](O)[C@@H](NC(=O)c4ccccc4)c4ccccc4)C(C)=C1C3(C)C)[C@]1(OC(C)=O)CO[C@@H]1C[C@@H]2O [paclitaxel]
growth of MCF-7 cells [3]: inhibited the growth of MCF-7 cells
